The experiment has as its system AKR/Lw mice, AKR lymphoma ip, median survival T/C. Description: NCI In Vivo Anticancer Drug Screen. Data for tumor model Lymphoma AKR (Transplanted) (intraperitoneal) in AKR/Lw mice. The conditions noted are these: endpoint: median survival time, higher = longer survival. The protocol: The antitumor activity of compounds was measured in mice bearing transplantable tumors. Survival or tumor size were measured and the results are expressed as the measurement made in the treated group (T) divided by the measurement made in the vehicle treated control group (C). The tumor model used in this assay is Lymphoma AKR (Transplanted) (intraperitoneal) in AKR/Lw mice

The mark [1] stands for this setting: dose: 25.0 mg/kg/injection, schedule: Q01DX001 (ip), vehicle: saline.
Where [2] appears, read: dose: 37.5 mg/kg/injection, schedule: Q01DX001 (ip), vehicle: saline.
Setting [3] is: dose: 400.0 mg/kg/injection, schedule: Q01DX001 (ip), vehicle: saline.
The mark [4] stands for this setting: dose: 100.0 mg/kg/injection, schedule: Q01DX001 (ip), vehicle: saline.
Setting [5] is: dose: 200.0 mg/kg/injection, schedule: Q01DX001 (ip), vehicle: saline.
The mark [6] stands for this setting: dose: 50.0 mg/kg/injection, schedule: Q01DX001 (ip), vehicle: saline.
Where [7] appears, read: dose: 100.0 mg/kg/injection, schedule: Q01DX001 (ip), vehicle: Klucel (hydroxypropylcellulose) (HPC).
The mark [8] stands for this setting: dose: 200.0 mg/kg/injection, schedule: Q01DX001 (ip), vehicle: Klucel (hydroxypropylcellulose) (HPC).
[9] abbreviates: dose: 400.0 mg/kg/injection, schedule: Q01DX001 (ip), vehicle: Klucel (hydroxypropylcellulose) (HPC).

Structures are written as SMILES. Several values for one entry are separate records, joined by “and”; a condition that tells them apart may be missing. Identical values can stand only once. Inconclusive results and toxic doses are left out.

Turning to `O=P1(NCCCl)OCCCN1CCCl` (centres undefined), the T/C (dose: 5.0 mg/kg/injection, schedule: Q01DX009 (ip), vehicle: saline) was 108 % of control; the T/C (dose: 6.25 mg/kg/injection, schedule: Q04DX003 (ip), vehicle: saline) was 96 % of control; the T/C (dose: 10.0 mg/kg/injection, schedule: Q01DX009 (ip), vehicle: saline) is 110 % of control and 113 % of control; the T/C (dose: 12.5 mg/kg/injection, schedule: Q04DX003 (ip), vehicle: saline) is 96 % of control; the T/C (dose: 18.7 mg/kg/injection, schedule: Q01DX001 (ip), vehicle: saline) is 95 % of control; the T/C (dose: 18.75 mg/kg/injection, schedule: Q01DX001 (ip), vehicle: saline) is 97 % of control. The T/C under setting [1] was 120 % of control; the T/C under setting [2] was 95 % of control and 113 % of control; the T/C (dose: 37.5 mg/kg/injection, schedule: Q04DX003 (ip), vehicle: saline) was 95 % of control; the T/C (dose: 50.0 mg/kg/injection, schedule: Q01DX001 (sc), vehicle: steriod suspending solution) was 103 % of control; the T/C (dose: 54.0 mg/kg/injection, schedule: Q01DX001 (ip), vehicle: saline with Tween-80) is 162 % of control; the T/C (dose: 54.0 mg/kg/injection, schedule: Q07DX002 (ip), vehicle: water) was 155 % of control. Besides, the T/C runs as follows: (dose: 60.0 mg/kg/injection, schedule: Q01DX009 (ip), vehicle: saline) 115 % of control; (dose: 75.0 mg/kg/injection, schedule: Q07DX003 (ip), vehicle: saline) 168 % of control and 184 % of control and 186 % of control; (dose: 80.0 mg/kg/injection, schedule: Q01DX009 (ip), vehicle: saline) 90 % of control; (dose: 100.0 mg/kg/injection, schedule: Q07DX003 (ip), vehicle: saline) 189 % of control; (dose: 108.0 mg/kg/injection, schedule: Q01DX001 (ip), vehicle: saline with Tween-80) 346 % of control; (dose: 108.0 mg/kg/injection, schedule: Q07DX002 (ip), vehicle: water) 355 % of control. For the same molecule, the T/C reads like this: (dose: 125.0 mg/kg/injection, schedule: Q01DX001 (ip), vehicle: saline) 113 % of control and 153 % of control and 222 % of control; (dose: 125.0 mg/kg/injection, schedule: Q01DX001 (sc), vehicle: steriod suspending solution) 153 % of control; (dose: 125.0 mg/kg/injection, schedule: Q04DX003 (ip), vehicle: saline) 182 % of control and 236 % of control; (dose: 125.0 mg/kg/injection, schedule: Q07DX003 (ip), vehicle: saline) 157 % of control; (dose: 216.0 mg/kg/injection, schedule: Q01DX001 (ip), vehicle: saline with Tween-80) 375 % of control; (dose: 216.0 mg/kg/injection, schedule: Q07DX002 (ip), vehicle: water) 333 % of control. Moreover, the T/C (dose: 250.0 mg/kg/injection, schedule: Q01DX001 (ip), vehicle: saline) is 120 % of control and 222 % of control; the T/C (dose: 250.0 mg/kg/injection, schedule: Q01DX001 (sc), vehicle: steriod suspending solution) is 120 % of control; the T/C (dose: 250.0 mg/kg/injection, schedule: Q04DX003 (ip), vehicle: saline) is 221 % of control and 236 % of control; the T/C (dose: 300.0 mg/kg/injection, schedule: Q04DX003 (ip), vehicle: saline) is 105 % of control; the T/C under setting [3] is 86 % of control; the T/C (dose: 400.0 mg/kg/injection, schedule: Q01DX001 (sc), vehicle: steriod suspending solution) was 123 % of control. Moreover, the T/C is 375 % of control (dose: 432.0 mg/kg/injection, schedule: Q01DX001 (ip), vehicle: saline with Tween-80) and 111 % of control (dose: 600.0 mg/kg/injection, schedule: Q01DX001 (ip), vehicle: saline).
For `O=[N+]([O-])O.[Th]`, the T/C is 113 % of control under setting [4], 109 % of control under setting [5] and 104 % of control under setting [3].
For the molecule `C[C@@H]1C[C@H]2[C@@H]3CCC4=CC(=O)C=C[C@]4(C)[C@@]3(F)[C@@H](O)C[C@]2(C)[C@@]1(O)C(=O)CO`, the T/C reads like this: (dose: 0.25 mg/kg/injection, schedule: Q01DX004 (sc), vehicle: saline) 121 % of control; (dose: 0.5 mg/kg/injection, schedule: Q01DX004 (sc), vehicle: saline) 103 % of control and 110 % of control; (dose: 1.0 mg/kg/injection, schedule: Q01DX004 (sc), vehicle: saline) 103 % of control and 121 % of control; (dose: 1.8 mg/kg/injection, schedule: Q01DX004 (sc), vehicle: saline) 89 % of control; (dose: 2.6 mg/kg/injection, schedule: Q01DX004 (sc), vehicle: saline) 103 % of control; (dose: 4.0 mg/kg/injection, schedule: Q01DX004 (sc), vehicle: saline) 103 % of control. Further, under “dose: 4.5 mg/kg/injection, schedule: Q01DX004 (sc), vehicle: saline”, the T/C was 96 % of control.
`O=S1(=O)CC(O)C(Cl)C1` (centres undefined): the T/C was 91 % of control under setting [4], 91 % of control under setting [5] and 95 % of control under setting [3].
For the molecule `CCCN(CCC)CC(C)=O`, the T/C is 106 % of control (dose: 11.0 mg/kg/injection, schedule: Q01DX001 (ip), vehicle: saline); 103 % of control (dose: 17.0 mg/kg/injection, schedule: Q01DX001 (ip), vehicle: saline); 100 % of control under setting [1]; 100 % of control under setting [2]; 115 % of control under setting [6]; 105 % of control and 110 % of control under setting [4].
In the case of `CC(C)(C)/[N+]([O-])=[N+](\[O-])C(C)(C)C` (tested in a mixture with another compound), the T/C is 95 % of control under setting [7], 97 % of control under setting [8] and 100 % of control under setting [9].
Take `CC1(C)CCN1Cc1ccccc1`: the T/C is 97 % of control (dose: 12.5 mg/kg/injection, schedule: Q01DX001 (ip), vehicle: saline); 100 % of control under setting [1]; 100 % of control under setting [6].
Regarding `ClC1=C(Cl)C2(Cl)C3COCC3C1(Cl)C2(Cl)Cl` (centres undefined), the T/C reads like this: under setting [7], 100 % of control; under setting [8], 93 % of control; under setting [9], 91 % of control.
For the molecule `COc1cc2c(cc1OC)C(C#N)C2` (centres undefined), the T/C runs as follows: under setting [7], 100 % of control; under setting [8], 100 % of control; under setting [9], 94 % of control.
In the case of `CN(C)S(=O)(=O)Nc1cc(Cl)c(NS(=O)(=O)N(C)C)cc1Cl`, the T/C under setting [7] was 93 % of control, the T/C under setting [8] was 106 % of control and the T/C under setting [9] was 100 % of control.
Consider `NC(Cc1ccc([N+](=O)[O-])cc1)C(=O)O` (centres undefined), for which the T/C under setting [4] is 94 % of control and the T/C under setting [5] was 96 % of control.
Take `S=C1SCN(Cc2ccccc2)CN1Cc1ccccc1`: the T/C by setting is: under setting [4], 111 % of control; under setting [5], 91 % of control; under setting [3], 91 % of control.
On to `CCN(CC)C(N)=S`, for which the T/C under setting [7] is 105 % of control; the T/C (dose: 100.0 mg/kg/injection, schedule: Q04DX003 (ip), vehicle: Klucel (hydroxypropylcellulose) (HPC)) was 100 % of control; the T/C under setting [8] was 105 % of control; the T/C (dose: 200.0 mg/kg/injection, schedule: Q04DX003 (ip), vehicle: Klucel (hydroxypropylcellulose) (HPC)) was 103 % of control; the T/C under setting [9] is 110 % of control; the T/C (dose: 400.0 mg/kg/injection, schedule: Q04DX003 (ip), vehicle: Klucel (hydroxypropylcellulose) (HPC)) is 107 % of control.
As for `CC(=O)OCC(=O)[C@@]1(O)CC[C@H]2[C@@H]3C[C@H](F)C4=CC(=O)CC[C@]4(C)[C@H]3C(=O)C[C@@]21C`, the T/C was 103 % of control (dose: 50.0 mg/kg/injection, schedule: Q04DX003 (ip), vehicle: saline with Tween-80); 90 % of control (dose: 100.0 mg/kg/injection, schedule: Q01DX001 (ip), vehicle: saline with Tween-80); 111 % of control (dose: 200.0 mg/kg/injection, schedule: Q01DX001 (ip), vehicle: saline with Tween-80).
Regarding `NC(=O)C(Br)CBr` (centres undefined), the T/C was 100 % of control (dose: 25.0 mg/kg/injection, schedule: Q04DX003 (ip), vehicle: saline); 122 % of control (dose: 50.0 mg/kg/injection, schedule: Q04DX003 (ip), vehicle: saline); 108 % of control under setting [4]; 89 % of control (dose: 100.0 mg/kg/injection, schedule: Q04DX003 (ip), vehicle: saline); 101 % of control under setting [5].
Regarding `COC(=O)Cc1ccc([N+](=O)[O-])cc1[N+](=O)[O-]`, the T/C is 94 % of control under setting [4], 94 % of control under setting [5] and 97 % of control under setting [3].
For the molecule `OCC1C(CO)C2(Cl)C(Cl)=C(Cl)C1(Cl)C2(Cl)Cl` (centres undefined), the T/C was 100 % of control under setting [7], 93 % of control under setting [8] and 91 % of control under setting [9].
With `c1ccc2c(c1)OCCOCCOc1ccccc1OCCOCCO2`, the T/C by setting is: under setting [4], 107 % of control; under setting [5], 123 % of control; under setting [3], 103 % of control.

For the origin of these results see PubChem BioAssay AID190 (DTP/NCI, 2004).
